Measurements: article PMC9168271, “Discovery of Novel Tetrahydro-β-carboline Containing Aminopeptidase N Inhibitors as Cancer Chemosensitizers” (Frontiers in Oncology, 2022)
Where two headings read alike, the source gives them in different places.

Biological target: Aminopeptidase N (APN, CD13) (Homo sapiens, UniProt P15144)
Assay: APN enzyme inhibitory assay, supernatant of K562-CD13 cells as enzyme source, L-leucine-p-nitro anilide substrate;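 note: substrate L-leucine-p-nitro anilide used at 1.6 mM, with enzyme from sonicated APN-overexpressing K562 cell lysate supernatant, run in 96-well plates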
Settings: for inhibition at 30 µM: read-out: Inhibitory rate (%)
Procedure: In the enzyme inhibitory assay, K562-CD13 monoclonal cells were used as APN enzyme source as described in our previous work ([27]).
K562 cells with overexpression of APN were added into PBS for ultrasonic crushing, centrifuged for 10 minutes, and supernatant was taken as enzyme source and added into 96-well plate. Different concentrations of compounds were added subsequently, and 1.6 mM L-leucine-p-nitro anilide was used as substrate. After 30 minutes of reaction, the APN enzyme activity was measured at 405 nm absorbance. The inhibition rate of APN activity was analyzed by the formula (Od control OD tested)/Od control 100%.

Chain of Aminopeptidase N (APN, CD13) (P15144 whole entry): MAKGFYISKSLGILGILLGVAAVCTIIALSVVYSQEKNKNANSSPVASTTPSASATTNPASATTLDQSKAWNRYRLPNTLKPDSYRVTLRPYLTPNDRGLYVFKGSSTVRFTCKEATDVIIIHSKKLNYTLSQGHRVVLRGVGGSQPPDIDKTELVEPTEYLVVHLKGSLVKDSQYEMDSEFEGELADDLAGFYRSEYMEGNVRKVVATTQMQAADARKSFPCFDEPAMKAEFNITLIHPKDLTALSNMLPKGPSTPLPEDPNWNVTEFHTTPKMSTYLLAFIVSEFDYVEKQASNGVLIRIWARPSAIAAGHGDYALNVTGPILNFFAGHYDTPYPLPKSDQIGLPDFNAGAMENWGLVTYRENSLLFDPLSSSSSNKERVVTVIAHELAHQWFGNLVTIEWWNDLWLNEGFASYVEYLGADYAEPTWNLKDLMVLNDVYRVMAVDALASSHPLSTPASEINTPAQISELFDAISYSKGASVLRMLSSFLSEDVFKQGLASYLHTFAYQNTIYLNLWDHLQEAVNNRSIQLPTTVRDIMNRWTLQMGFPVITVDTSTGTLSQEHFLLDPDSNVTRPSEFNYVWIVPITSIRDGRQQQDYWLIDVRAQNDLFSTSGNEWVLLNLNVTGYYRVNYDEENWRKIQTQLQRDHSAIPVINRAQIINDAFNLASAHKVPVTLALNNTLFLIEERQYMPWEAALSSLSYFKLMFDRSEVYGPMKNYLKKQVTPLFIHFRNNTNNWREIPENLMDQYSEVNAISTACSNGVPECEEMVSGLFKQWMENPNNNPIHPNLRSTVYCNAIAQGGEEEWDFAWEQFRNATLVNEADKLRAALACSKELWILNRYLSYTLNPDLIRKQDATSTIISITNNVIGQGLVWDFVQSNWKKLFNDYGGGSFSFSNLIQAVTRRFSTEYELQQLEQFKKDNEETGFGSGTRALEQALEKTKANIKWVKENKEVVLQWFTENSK

Compound	inhibition at 30 µM [%]	also measured
O=C(Cn1c2c(c3ccccc31)CCN(C(=O)c1ccc(F)cc1)C2)NO [Compound D10, 2-(2-(4-fluorobenzoyl)-1,2,3,4-tetrahydro-9H-pyrido[3,4-b]indol-9-yl)-N-hydroxyacetamide]	42.5 ± 1.42	
O=C(NO)c1ccc(Cn2c3c(c4ccccc42)CCN(C(=O)c2cccc(F)c2)C3)cc1 [Compound D13, 4-((2-(3-fluorobenzoyl)-1,2,3,4-tetrahydro-9H-pyrido[3,4-b]indol-9-yl)methyl)-N-hydroxybenzamide]	13.2 ± 0.4	
COc1ccccc1C(=O)N1CCc2c(n(Cc3ccc(C(=O)NO)cc3)c3ccccc23)C1 [Compound D7, N-hydroxy-4-((2-(2-methoxybenzoyl)-1,2,3,4-tetrahydro-9H-pyrido[3,4-b]indol-9-yl)methyl)benzamide]	17.9 ± 0.84	
O=C(Cn1c2c(c3ccccc31)CCN(C(=O)c1c(F)cccc1Cl)C2)NO [Compound D29, 2-(2-(2-chloro-6-fluorobenzoyl)-1,2,3,4-tetrahydro-9H-pyrido[3,4-b]indol-9-yl)-N-hydroxyacetamide]	60 ± 4.95	IC50: 9.23 ± 0.67 µM
O=C(Cn1c2c(c3ccccc31)CCN(C(=O)c1ccc(C(F)(F)F)cc1)C2)NO [Compound D1, N-hydroxy-2-(2-(4-(trifluoromethyl)benzoyl)-1,2,3,4-tetrahydro-9H-pyrido[3,4-b]indol-9-yl)acetamide]	35 ± 1.51	
O=C(NO)c1ccc(Cn2c3c(c4ccccc42)CCN(C(=O)c2ccccc2F)C3)cc1 [Compound D15, 4-((2-(2-fluorobenzoyl)-1,2,3,4-tetrahydro-9H-pyrido[3,4-b]indol-9-yl)methyl)-N-hydroxybenzamide]	28.7 ± 2.75	
Cc1ccccc1C(=O)N1CCc2c(n(Cc3ccc(C(=O)NO)cc3)c3ccccc23)C1 [Compound D17, N-hydroxy-4-((2-(2-methylbenzoyl)-1,2,3,4-tetrahydro-9H-pyrido[3,4-b]indol-9-yl)methyl)benzamide]	23.6 ± 4.51	
O=C(NO)c1ccc(Cn2c3c(c4ccccc42)CCN(C(=O)c2ccccc2C(F)(F)F)C3)cc1 [Compound D6, N-hydroxy-4-((2-(2-(trifluoromethyl)benzoyl)-1,2,3,4-tetrahydro-9H-pyrido[3,4-b]indol-9-yl)methyl)benzamide]	15.3 ± 3.66	
O=C(NO)c1ccc(Cn2c3c(c4ccccc42)CCN(C(=O)c2ccccc2Cl)C3)cc1 [Compound D20, 4-((2-(2-chlorobenzoyl)-1,2,3,4-tetrahydro-9H-pyrido[3,4-b]indol-9-yl)methyl)-N-hydroxybenzamide]	19.1 ± 4.17	
COc1ccccc1C(=O)N1CCc2c(n(CC(=O)NO)c3ccccc23)C1 [Compound D8, N-hydroxy-2-(2-(2-methoxybenzoyl)-1,2,3,4-tetrahydro-9H-pyrido[3,4-b]indol-9-yl) acetamide]		Inhibitory rate (%) (compound at 30 µM, mean of at least three experiments): 56.7±0.42%; IC50 (mean of at least three experiments): 25 ± 3.32 µM
O=C(NO)c1ccc(Cn2c3c(c4ccccc42)CCN(C(=O)c2ccccc2)C3)cc1 [Compound D4, 4-((2-benzoyl-1,2,3,4-tetrahydro-9H-pyrido[3,4-b]indol-9-yl)methyl)-N-hydroxybenzamide]	19.4 ± 4.53	
O=C(NO)c1ccc(Cn2c3c(c4ccccc42)CCN(C(=O)c2ccc(F)cc2)C3)cc1 [Compound D11, 4-((2-(4-fluorobenzoyl)-1,2,3,4-tetrahydro-9H-pyrido[3,4-b]indol-9-yl)methyl)-N-hydroxybenzamide]	35 ± 4.57	
O=C(Cn1c2c(c3ccccc31)CCN(C(=O)c1cc(F)ccc1F)C2)NO [Compound D28, 2-(2-(2,5-difluorobenzoyl)-1,2,3,4-tetrahydro-9H-pyrido[3,4-b]indol-9-yl)-N-hydroxyacetamide]	78 ± 3.95	IC50: 4.85 ± 0.55 µM
O=C(Cn1c2c(c3ccccc31)CCN(C(=O)c1ccccc1)C2)NO [Compound D3, 2-(2-benzoyl-1,2,3,4-tetrahydro-9H-pyrido[3,4-b]indol-9-yl)-N-hydroxyacetamide]	74.4 ± 6.42	IC50: 6.24 ± 0.43 µM
